Earlier results on one compound are cited in patent US6071534A, “Multivesicular liposomes with controlled release of active agents encapsulated in the presence of a hydrochloride” (priority 1998, dated 2000).

For the series the following is noted: after IP, IV, IT, IA, IM or SC dose.

Each structure is given as a SMILES string.

Take `Nc1ccn([C@@H]2O[C@H](CO)[C@@H](O)[C@@H]2O)c(=O)n1` [cytarabine, cytosine arabinoside]: the half-life entry is “very short”.
